pIC50: −log10 of the molar value.

These results are taken from paper PMC3948331 (Future medicinal chemistry, 2013).

The test system of data set [1] is T. cruzi, strain Tulahuen C4 amastigotes. The data set can be described thus: In vitro activity against T. cruzi intracellular amastigotes in L6 host cells. The format is cell-based, Trypanosoma cruzi. The note with it: for Selectivity: IC50 in L6 cells/IC50 in T. cruzi, compounds 9–13; for pIC50: Trypanosoma cruzi, TULAHUEN, L6, read-out: T. cruzi IC-50.
A short description of data set [2]: Cytotoxicity assessment in the host L6 cells. The format is cell-based. The note with it: rat, L6 cells (rat skeletal myoblasts).
Data set [3] has as its system transgenic T. cruzi Y strain expressing firefly luciferase. The data set can be described thus: In vivo anti-T. cruzi fast luminescence assay in infected Balb/c mice. The note with it: for in vivo antichagasic activity compared with Bnz: 10-day treatment, Bnz 15 mg/kg/day. The arrangement: species or system Trypanosoma cruzi.
The subject of a further data set is Balb/c mice. Kind of data set: Apparent toxicity in treated T. cruzi-infected mice. It is filed as in vivo. The note with it: 30 mg/kg/day i.p., 5- and 10-day treatment.
Another data set relates to zebrafish embryos. The data set can be described thus: Toxicity studies in zebrafish embryos. The note with it: incubation of embryos; data not shown.
The conditions of data set [4]: logD at pH 6; threshold for high permeability; cited from earlier work.
Data set [5] can be described thus: Microsomal stability screen. It is filed as in vitro ADME. The note with it: mouse, microsomes, 1 h, 1 µM, pH 7.4.
Another data set can be described thus: Plasma stability screen. The format is in vitro ADME, mouse. The note with it: 5 µM.
The nature of another data set: in vitro. The note with it: human, Caco-2.
For a further data set, the system named is guinea pigs. The note with it: guinea pigs treated with Bnz; cited from earlier work.
The next data set has as its system S. typhimurium strains. The note with it: cited from earlier work.
A short description of data set [6]: Caco-2 monolayer permeability. The note with it: human.
The mark [7] stands for this setting: i.p., 5–10 days treatment at the doses of Figure 1, more than 80 and up to 100%.

`Cl.O=[N+]([O-])c1ncn(CCCNCCc2cccc(C(F)(F)F)c2)n1` [Compound 9, [3-(3-nitro-1H-1,2,4-triazol-1-yl)propyl] ({2-[3-(trifluoromethyl)phenyl]ethyl})amine hydrochloride] had a Selectivity in data set [1] of 116. In addition, the values for the pIC50 in [1] and in data set [2] were 6.11 and 4.05, respectively. The “drop of parasite index” value in data set [3] (30 mg/kg/day i.p., after 5-day treatment) is listed as “about 88%”; in data set [3] (30 mg/kg/day i.p., after 10-day treatment), roughly 85%; in data set [3] (setting [7]), “more than 80%”. In addition, in the data set with Balb/c mice, the “toxicity in treated mice” value is listed as “without any sign of toxicity”.
Consider `CC1CS(=O)(=O)CCN1/N=C/c1ccc([N+](=O)[O-])o1` (stereo not shown) [nifurtimox], for which, in the data set with zebrafish embryos, the “effect on zebrafish embryos' development” value was “weakened heart beat, pericardial oedema or death”.
Turning to `CC(CCc1ccccc1)NCC(O)c1ccc(O)c(C(N)=O)c1` (stereo not shown) [labetalol], the logD6 in [4] was −0.42.
`O=[N+]([O-])c1ncn(CCCNc2nc3ccc(Cl)cc3s2)n1` [Compound 10, 6-chloro-N-[3-(3-nitro-1H-1,2,4-triazol-1-yl)propyl]-1,3-benzothiazol-2-amine]: in [1], the Selectivity came out at 1725 and the pIC50 is 7.23. In data set [2], this compound gave a pIC50 of 3.99. Also, in data set [3] (10 mg/kg/day i.p., 5- or 10-day treatment), the “in vivo antichagasic activity” value is “failed to demonstrate in vivo antichagasic activity”. Moreover, in data set [5], the “Mean remaining parent comp (+)NADPH” value came to 1.0% and the “Mean remaining parent comp (−)NADPH” value is given as 108%. The “Mean remaining parent comp” value in the data set “Plasma stability screen” (mouse plasma, 60 min, 37°C) is 87.3%.
On to `CC(=O)CC(c1ccccc1)c1c(O)c2ccccc2oc1=O` (stereo not shown) [Warfarin], for which the “Mean remaining parent comp (+)NADPH” value in data set [5] came to 83.9%. The “Mean remaining parent comp” value in the data set “Plasma stability screen” (mouse, plasma, 1 h) is on record as 97.8%. The compound also showed a Papp A→B at 2 h, 10 µM in “in vitro” of 44.2 ×10⁻⁶ cm/s.
As to `O=C(Cn1ccnc1[N+](=O)[O-])NCc1ccccc1` [Bnz, benznidazole], in [1], the pIC50 is 5.84. The “mutagenic derivatives in serum and urine detectable by the Ames test” value in the data set on guinea pigs was “not metabolized by the mammalian host into stable mutagenic derivatives”. Also, the “concentrations showing significant mutagenicity” value in the data set on S. typhimurium strains is less than 62 µg/mL.
In data set [1], `O=C(NCCCCn1cnc([N+](=O)[O-])n1)c1nc2ccccc2s1` [Compound 13, N-[4-(3-nitro-1H-1,2,4-triazol-1-yl)butyl]-1,3-benzothiazole-2-carboxamide] came in with a Selectivity of 364.4. Also, the pIC50 in data set [1] was 6.37; in [2], 3.81. Further, the “in vivo antichagasic activity compared with Bnz” value in data set [3] (15 mg/kg/day i.p.) is recorded as “failed to perform better than Bnz”.
Take `O=[N+]([O-])c1ncn(CCCCNS(=O)(=O)c2ccc(Cl)s2)n1` [Compound 11, 5-chloro-N-[4-(3-nitro-1H-1,2,4-triazol-1-yl)butyl]thiophene-2-sulfonamide]: in [1], the Selectivity is 277.5 and the pIC50 was 6.34. In data set [2], this compound showed a pIC50 of 3.89. In addition, the parasite signal result in data set [3] (15 mg/kg/day i.p., after 10 days of treatment, greater activity than Bnz) is given as “no detectable parasite signal”. Besides, the “drop of parasite index” value in data set [3] (setting [7]) was “more than 80%”.
As to `O=[N+]([O-])c1ncn(CCCCNS(=O)(=O)c2cc(Cl)c(Cl)s2)n1` [Compound 12, 4,5-dichloro-N-[4-(3-nitro-1H-1,2,4-triazol-1-yl)butyl]thiophene-2-sulfonamide], in data set [1], the Selectivity turned out to be 261.1 and the pIC50 was 6.43. This compound also had a pIC50 in [2] of 4.01. Further, the “in vivo antichagasic activity compared with Bnz” value in [3] (15 mg/kg/day i.p.) is “failed to perform better than Bnz”.
In the case of `CC(C)[N+](C)(CCOC(=O)C1c2ccccc2Oc2ccccc21)C(C)C` [Propantheline], in the data set “Plasma stability screen” (mouse plasma, 60 min, 37°C), the “Mean remaining parent comp” value was 30.4%.
Consider `CNC(=C[N+](=O)[O-])NCCSCc1ccc(CN(C)C)o1` [Ranitidine], for which the Papp A→B at 2 h, 10 µM in [6] was found to be 0.5 ×10⁻⁶ cm/s.
